From patent US20240327354A1, “GRAM-NEGATIVE BACTERIA EFFLUX PUMP INHIBITORS” (INSTITUT NATIONAL DE LA SANTÉ ET DE LA RECHERCHE MÉDICALE, priority 2021, published 2024)
Structures can show the parent of a compound that is named as a salt.

What was measured:
E. coli BW25113 [1] = assay: Assay 4: boosting of antibiotic activity by EPI example 37 in E. coli; type: cell-based, Escherichia coli; settings: MIC of the named antibiotic boosted by 100 μM example 37
Source text: (§1) Escherichia coli BW25113 (CGSC 7636) and its derivatives E. coli ΔtolC (JW5503-1, ΔtolC732::kan, CGSC 11430), E. coli ΔacrA (JW0452-3, ΔacrA748::kan, CGSC 11843) and E. coli ΔacrB (JW0451-2, ΔacrB747::kan, CGSC 8609) were obtained from E. coli Genetic Stock Center (CGSC, New Haven, Connecticut) and originated from the Keio Collection (Baba T et al, Mol Sys Biol, 2006). Klebsiella pneumoniae (LMG 2095/ATCC 13883) and K. pneumoniae (ATCC43816), Pseudomonas aeruginosa (PAO1), Acinetobacter baumannii (LMG 1025, ATCC 17978), were obtained from ATCC or BCCM/LMG Bacteria Collection. All bacteria were grown and tested in cation-adjusted Mueller-Hinton broth (CAMHB; BD Difco) at 37° C. For conservation, log phase bacteria were frozen (−80° C.) in CAMHB supplemented with 15% glycerol.
(§2) Measurement of the Impact of EPI Example 37 on the Boosting of Antibiotic Activity in E. coli, A. baumannii, K. pneumoniae and P. aeruginosa.
(§3) Bacterial suspensions were then prepared in CAMHB from a growing pre-culture, (E. coli [OD600=0.001], A. baumannii [OD600=0.001], K. pneumoniae [OD600=0.001] and P. aeruginosa [OD600=0.001]), and added to the microplate using a ViaFill. Microplate containing bacterial cultures were then grown (5 h or 24 h, 37° C.) and bacterial viability determined by either resazurin reduction or OD600.

P. aeruginosa PAO1 = assay: Assay 4: boosting of antibiotic activity by EPI example 37 in P. aeruginosa; type: cell-based, Pseudomonas aeruginosa; settings: MIC of the named antibiotic boosted by 100 μM example 37
Source text: as §1, §2, §3

K. pneumoniae ATCC43816 = assay: Assay 4: boosting of antibiotic activity by EPI example 37 in K. pneumoniae ATCC43816; type: cell-based, Klebsiella pneumoniae; settings: MIC of the named antibiotic boosted by 100 μM example 37
Source text: as §1, §2, §3

K. pneumoniae ATCC13883 = assay: Assay 4: boosting of antibiotic activity by EPI example 37 in K. pneumoniae ATCC13883; type: cell-based, Klebsiella pneumoniae
Source text: as §1, §2, §3

[2] = test system: A. baumannii LMG 1025 (ATCC 17978); assay: Assay 3: growth inhibition of A. baumannii by sub-inhibitory novobiocin in combination with examples (resazurin reduction); type: cell-based, Acinetobacter baumannii; settings: 5 μg/mL novobiocin, 5 h or 24 h, 37° C., read-out: EC90 on A. baumannii with 5 μg/mL of novobiocin
Source text: as §1
Measurement of growth Inhibition of A. baumannii strains by sub Inhibitory concentrations of novobiocin In combination with examples 1-137
(§4) For the evaluation of the dose dependent activity of examples 1-137, their ability to boost the antibacterial activity of sub-inhibitory concentrations novobiocin was determined. Briefly, A. baumannii LMG 1025 (ATCC 17978) were diluted from frozen or growing stocks to an OD600 of 0.001 in CAMHB. The bacterial suspension was then used as such (no—antibiotic control to evaluate EPI activity), or spiked with novobiocin at a final concentration of 5 μg/mL. Bacteria were then added to microplates carrying serial dilutions of the compounds examples 1-137, and incubated for (5 h or 24 h, 37° C.). Bacterial viability was evaluated using the resazurin reduction assay, and measured by fluorescence (POLARstar Omega, BMG Labtech: Ex: 530 nm Em: 590 nm). […] were defined as the compound concentration that prevented 90% of resazurin turnover compared to the non-treated bacteria.

[3] = test system: A. baumannii LMG 1025 (ATCC 17978); assay: Assay 2: growth inhibition of A. baumannii by sub-inhibitory chloramphenicol in combination with examples (resazurin reduction); type: cell-based, Acinetobacter baumannii; settings: read-out: EC90 on A. baumannii with 10 μg/mL of chloramphenicol, 10 μg/mL chloramphenicol, 5 h or 24 h, 37° C.
Source text: as §1
Measurement of Growth Inhibition of A. baumannii Strains by Sub Inhibitory Concentrations of Chloramphenicol in Combination with Examples 1-137
as §4, with “concentrations chloramphenicol” for “concentrations novobiocin”, “such (no-antibiotic” for “such (no—antibiotic”, “with chloramphenicol” for “with novobiocin”, “of 10” for “of 5”

E. coli BW25113 [4] = assay: Assay 1: growth inhibition of E. coli by sub-inhibitory pyridomycin in combination with examples (resazurin reduction); type: cell-based, Escherichia coli; settings: read-out: EC50 on E. coli with 8 μg/mL of pyridomycin, 8 μg/mL pyridomycin, 5 h, 37° C.
Outline: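 E. coli BW25113 at OD600 0.0004–0.001 was grown in CAMHB at 37 °C. Viability was read by resazurin reduction fluorescence (Ex 530/Em 590 nm). EC50 is the concentration preventing 50% of resazurin turnover relative to untreated bacteria.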

A. baumannii LMG = assay: Assay 4: boosting of antibiotic activity by EPI example 37 in A. baumannii; type: cell-based, Acinetobacter baumannii; settings: MIC of the named antibiotic boosted by 100 μM example 37
Source text: as §1, §2, §3

[5] = MIC of the named antibiotic boosted by 100 μM example 37

SMILES | E. coli BW25113 Fold Boosted MIC By 100 μM example 37 (E. coli BW25113 [1]) | K. pneumoniae ATCC43816 Fold Boosted MIC By 100 μM example 37 (K. pneumoniae ATCC43816) | K. pneumoniae ATCC13883 Fold Boosted MIC By 100 μM example 37 (K. pneumoniae ATCC13883; [5]) | EC90 [2] | EC50 (E. coli BW25113 [4]) | also measured
CC1(C)S[C@@H]2[C@H](NC(=O)[C@H](N)c3ccccc3)C(=O)N2[C@H]1C(=O)O [Ampicillin (AMP), Ampicillin] | * (* = 2-3.9 fold) | – | – | – | – | –
CC[C@H]1OC(=O)[C@H](C)[C@@H](O[C@H]2C[C@@](C)(OC)[C@@H](O)[C@H](C)O2)[C@H](C)[C@@H](O[C@@H]2O[C@H](C)C[C@H](N(C)C)[C@H]2O)[C@](C)(O)C[C@@H](C)CN(C)[C@H](C)[C@@H](O)[C@]1(C)O [Azithromycin (AZY), Azithromycin] | – | ** (** = 4-7.9 fold) | ** (** = 4-7.9 fold) | – | – | P. aeruginosa PAO1 Fold Boosted MIC By 100 μM example 37 (P. aeruginosa PAO1): *** (*** = 8 fold +)
CO/N=C(\C(=O)N[C@@H]1C(=O)N2C(C(=O)[O-])=C(C[N+]3(C)CCCC3)CS[C@H]12)c1csc(N)n1 [Cefepime (CEP), Cefepime] | – | * (* = 2-3.9 fold) | – | – | – | –
O=C(O)c1cn(C2CC2)c2cc(N3CCNCC3)c(F)cc2c1=O [Ciprofloxacin (CIP), Ciprofloxacin] | *** (*** = 8 fold +) | *** (*** = 8 fold +) | *** (*** = 8 fold +) | – | – | –
CC[C@H]1OC(=O)[C@H](C)[C@@H](O[C@H]2C[C@@](C)(OC)[C@@H](O)[C@H](C)O2)[C@H](C)[C@@H](O[C@@H]2O[C@H](C)C[C@H](N(C)C)[C@H]2O)[C@](C)(O)C[C@@H](C)C(=O)[C@H](C)[C@@H](O)[C@]1(C)O [Erythromycin (ERY), Erythromycin] | ** (** = 4-7.9 fold) | ** (** = 4-7.9 fold) | *** (*** = 8 fold +) | – | – | –
Brc1cnc(N[C@H]2[C@@H]3CNC[C@@H]32)c2ccccc12 [Example 58, N-[(1R,5S)-3-azabicyclo[3.1.0]hexan-6-yl]-4-bromo-isoquinolin-1-amine;hydrochloride] | – | – | – | 100 to 500 µM | 5 to 100 µM | EC90 [3]: 100 to 500 µM
NCc1cccc(-c2ccc3nc(N4CCNCC4)c(Cl)cc3c2)c1 [Example 66, [3-(3-chloro-2-piperazin-1-yl-6-quinolyl)phenyl]methanamine;dihydrochloride] | – | – | – | 5 to 100 µM | < 5 µM | EC90 [3]: 5 to 100 µM
CNCc1cccc(-c2ccc3nc(N4CCNCC4)c(Cl)cc3c2)c1 [Example 109, 1-[3-(3-chloro-2-piperazin-1-yl-6-quinolyl)phenyl]-N-methyl-methanamine;dihydrochloride] | – | – | – | 5 to 100 µM | < 5 µM | EC90 [3]: 5 to 100 µM
Cc1ccc(-c2ccc3nc(N4CCNCC4)c(Cl)cc3c2)cc1CN [Example 126, [5-(3-chloro-2-piperazin-1-yl-6-quinolyl)-2-methyl-phenyl]methanamine;dihydrochloride] | – | – | – | 5 to 100 µM | < 5 µM | –
COc1ccc(-c2ccc3nc(N4CCNCC4)c(Cl)cc3c2)cc1CN [Example 127, [5-(3-chloro-2-piperazin-1-yl-6-quinolyl)-2-methoxy-phenyl]methanamine;dihydrochloride] | – | – | – | 5 to 100 µM | < 5 µM | –
NCc1cc(-c2ccc3nc(N4CCNCC4)c(Cl)cc3c2)ccc1Cl [Example 128, [2-chloro-5-(3-chloro-2-piperazin-1-yl-6-quinolyl)phenyl]methanamine;dihydrochloride] | – | – | – | 5 to 100 µM | < 5 µM | –
NCc1cc(-c2ccc3nc(N4CCNCC4)c(Cl)cc3c2)ccc1C(F)(F)F [Example 129, [5-(3-chloro-2-piperazin-1-yl-6-quinolyl)-2-(trifluoromethyl)phenyl]methanamine;dihydrochloride] | – | – | – | 5 to 100 µM | < 5 µM | –
NCc1cc(-c2ccc3nc(N4CCNCC4)c(Cl)cc3c2)ccc1F [Example 130, [5-(3-chloro-2-piperazin-1-yl-6-quinolyl)-2-fluoro-phenyl]methanamine;dihydrochloride] | – | – | – | 5 to 100 µM | < 5 µM | EC90 [3]: 5 to 100 µM
Clc1cc2cc(-c3cccc4c3CCNC4)ccc2nc1N1CCNCC1 [Example 133, 3-chloro-2-piperazin-1-yl-6-(1,2,3,4-tetrahydroisoquinolin-5-yl)quinoline;dihydrochloride] | – | – | – | 5 to 100 µM | < 5 µM | –
Clc1cc2cc(-c3ccc4c(c3)CNC4)ccc2nc1N1CCNCC1 [Example 135, 3-chloro-6-isoindolin-5-yl-2-piperazin-1-yl-quinoline;dihydrochloride] | – | – | – | 5 to 100 µM | < 5 µM | –
CC(=O)O[C@H]1C[C@@]2(C)[C@@H](C[C@@H](O)[C@H]3[C@@]4(C)CC[C@@H](O)[C@@H](C)[C@@H]4CC[C@@]32C)/C1=C(\CCC=C(C)C)C(=O)O [Fusidic Acid (FUS), Fusidic Acid] | *** (*** = 8 fold +) | ** (** = 4-7.9 fold) | – | – | – | K. pneumoniae ATCC13883 Fold Boosted MIC By 100 μM example 37 (K. pneumoniae ATCC13883; 100 μM example 37): 2-4 fold
Cc1onc(-c2ccccc2)c1C(=O)N[C@@H]1C(=O)N2[C@@H]1SC(C)(C)[C@@H]2C(=O)O [Oxacillin (OXA), Oxacillin] | *** (*** = 8 fold +) | *** (*** = 8 fold +) | *** (*** = 8 fold +) | – | – | P. aeruginosa PAO1 Fold Boosted MIC By 100 μM example 37 (P. aeruginosa PAO1): * (* = 2-3.9 fold)
CCN1CCN(C(=O)N[C@@H](C(=O)N[C@@H]2C(=O)N3[C@@H]2SC(C)(C)[C@@H]3C(=O)O)c2ccccc2)C(=O)C1=O [Piperacillin (PPC), Piperacillin] | ** (** = 4-7.9 fold) | * (* = 2-3.9 fold) | * (* = 2-3.9 fold) | – | – | –
[H]/N=C(/N)N[C@H]1[C@H](O)[C@@H](O)[C@H](O[C@@H]2O[C@@H](C)[C@](O)(C=O)[C@H]2O[C@@H]2O[C@@H](CO)[C@H](O)[C@@H](O)[C@@H]2NC)[C@@H](N/C(N)=N\[H])[C@@H]1O [Streptomycin (STP), Streptomycin] | – | – | – | – | – | P. aeruginosa PAO1 Fold Boosted MIC By 100 μM example 37 (P. aeruginosa PAO1): * (* = 2-3.9 fold)
CN(C)[C@@H]1C(O)=C(C(N)=O)C(=O)[C@@]2(O)C(O)=C3C(=O)c4c(O)cccc4[C@@](C)(O)[C@H]3C[C@@H]12 [Tetracycline (TET), Tetracycline] | * (* = 2-3.9 fold) | – | * (* = 2-3.9 fold) | – | – | –
Oc1cc(Cl)ccc1Oc1ccc(Cl)cc1Cl [Triclosan (TRC), Triclosan] | * (* = 2-3.9 fold) | *** (*** = 8 fold +) | *** (*** = 8 fold +) | – | – | A. baumannii LMG Fold Boosted MIC By 100 μM example 37 (A. baumannii LMG): * (* = 2-3.9 fold)
